Results published in patent US20220257619A1, “LONG-ACTING FORMULATIONS OF TENOFOVIR ALAFENAMIDE” (Gilead Sciences, Inc., priority 2019, published 2022).
Values after ≈ are worked out from the molar mass of the structure shown. Read-outs that look alike come from different tables or passages of the source. Marks after values point to notes of the source that are not given here.

How the values were obtained:
physchem = settings: 37 °C, organic solvent or mixture, thermodynamic from solid
[1] = solvent BB, 37° C., asterisk: taken at 4 days, as opposed to 5 days

Compound | Solubility (mg/mL, Calculated as Free Base Equivalent) (solvent ACN, 37° C./5 days) | Solubility (mg/mL, Calculated as Free Base Equivalent) [1] | Solubility (mg/mL, Calculated as Free Base Equivalent) (solvent DCM, 37° C./5 days) | Solubility (mg/mL, Calculated as Free Base Equivalent) (solvent DMSO, 37° C./5 days) | Solubility (mg/mL, Calculated as Free Base Equivalent) (solvent NMP, 37° C./5 days) | Solubility (mg/mL, Calculated as Free Base Equivalent) (solvent PC, 37° C./5 days) | solubility at 1 day (physchem; ACN) | solubility at 5 days (physchem; ACN) | solubility at 1 day (physchem; DCM) | solubility at 5 days (physchem; DCM) | solubility at 1 day (physchem; DMSO) | solubility at 5 days (physchem; DMSO) | solubility at 1 day (physchem; NMP) | solubility at 5 days (physchem; NMP) | solubility at 1 day (physchem; PC) | solubility at 5 days (physchem; PC)
tenofovir alafenamide hemifumarate [TAF Hemifumarate] | 11 mg/mL | 3.9* mg/mL | 97 mg/mL | 132 mg/mL | 160 mg/mL | 22 mg/mL | – | – | – | – | – | – | – | – | – | –
CC(C)OC(=O)[C@H](C)N[P@](=O)(CO[C@H](C)Cn1cnc2c(N)ncnc21)Oc1ccccc1 [TAF Free base, (S)-isopropyl-2-(((S)-((((R)-1-(6-amino-9H-purin-9-yl)propan-2-yl)oxy)methyl)(phenoxy)phosphoryl)amino)propanoate] | – | 5.0 mg/mL | – | – | – | – | 15 mg/mL (≈ 31.5 mM) | 13 mg/mL (≈ 27.3 mM) | 146 mg/mL (≈ 306 mM) | 384 mg/mL (≈ 806 mM) | 96 mg/mL (≈ 201 mM) | 182 mg/mL (≈ 382 mM) | 96 mg/mL (≈ 201 mM) | 161 mg/mL (≈ 338 mM) | 15 mg/mL (≈ 31.5 mM) | 26 mg/mL (≈ 54.6 mM)
